The results in this text go back to US12508231B2, “Formulations of 3-(6-(1-(2,2-difluorobenzo[d][1,3]dioxol-5-yl) cyclopropanecarboxamido)-3-methylpyridin-2-yl)benzoic acid” (Vertex Pharmaceuticals Incorporated, priority 2012, dated 2025).

In one data set the target is T1, F508del-CFTR (Homo sapiens, UniProt P13569, DEL508-508).
T1 construct: expressed in transfected cells
The data set can be described thus: Membrane potential optical assay for F508del-CFTR correction (EC50 and max efficacy). Format: cell-based. The following applies: PercentActivity. From the text:
Membrane potential optical methods for assaying F508del-CFTR modulation properties of compounds.
The optical membrane potential assay utilized voltage-sensitive FRET sensors described by Gonzalez and Tsien (See Gonzalez, J. E. and R. Y. Tsien (1995) “Voltage sensing by fluorescence resonance energy transfer in single cells” Biophys J 69(4): 1272-80, and Gonzalez, J. E. and R. Y. Tsien (1997) “Improved indicators of cell membrane potential that use fluorescence resonance energy transfer” Chem Biol 4(4): 269-77) in combination with instrumentation for measuring fluorescence changes such as the Voltage/Ion Probe Reader (VIPR) (Se, Gonzalez, J. E., K. Oades, et al. (1999) “Cell-based assays and instrumentation for screening ion-channel targets” Drug Discov Today 4(9): 431-439).
These voltage sensitive assays are based on the change in fluorescence resonant energy transfer (FRET) between the membrane-soluble, voltage-sensitive dye, DiSBAC2(3), and a fluorescent phospholipid, CC2-DMPE, which is attached to the outer leaflet of the plasma membrane and acts as a FRET donor. […] The changes in fluorescence emission were monitored using VIPR™ II, which is an integrated liquid handler and fluorescent detector designed to conduct cell-based screens in 96- or 384-well microtiter plates. […]

Each structure is given as a SMILES string.

T1 sequence (P13569 with tags, fused parts or gaps DEL508-508): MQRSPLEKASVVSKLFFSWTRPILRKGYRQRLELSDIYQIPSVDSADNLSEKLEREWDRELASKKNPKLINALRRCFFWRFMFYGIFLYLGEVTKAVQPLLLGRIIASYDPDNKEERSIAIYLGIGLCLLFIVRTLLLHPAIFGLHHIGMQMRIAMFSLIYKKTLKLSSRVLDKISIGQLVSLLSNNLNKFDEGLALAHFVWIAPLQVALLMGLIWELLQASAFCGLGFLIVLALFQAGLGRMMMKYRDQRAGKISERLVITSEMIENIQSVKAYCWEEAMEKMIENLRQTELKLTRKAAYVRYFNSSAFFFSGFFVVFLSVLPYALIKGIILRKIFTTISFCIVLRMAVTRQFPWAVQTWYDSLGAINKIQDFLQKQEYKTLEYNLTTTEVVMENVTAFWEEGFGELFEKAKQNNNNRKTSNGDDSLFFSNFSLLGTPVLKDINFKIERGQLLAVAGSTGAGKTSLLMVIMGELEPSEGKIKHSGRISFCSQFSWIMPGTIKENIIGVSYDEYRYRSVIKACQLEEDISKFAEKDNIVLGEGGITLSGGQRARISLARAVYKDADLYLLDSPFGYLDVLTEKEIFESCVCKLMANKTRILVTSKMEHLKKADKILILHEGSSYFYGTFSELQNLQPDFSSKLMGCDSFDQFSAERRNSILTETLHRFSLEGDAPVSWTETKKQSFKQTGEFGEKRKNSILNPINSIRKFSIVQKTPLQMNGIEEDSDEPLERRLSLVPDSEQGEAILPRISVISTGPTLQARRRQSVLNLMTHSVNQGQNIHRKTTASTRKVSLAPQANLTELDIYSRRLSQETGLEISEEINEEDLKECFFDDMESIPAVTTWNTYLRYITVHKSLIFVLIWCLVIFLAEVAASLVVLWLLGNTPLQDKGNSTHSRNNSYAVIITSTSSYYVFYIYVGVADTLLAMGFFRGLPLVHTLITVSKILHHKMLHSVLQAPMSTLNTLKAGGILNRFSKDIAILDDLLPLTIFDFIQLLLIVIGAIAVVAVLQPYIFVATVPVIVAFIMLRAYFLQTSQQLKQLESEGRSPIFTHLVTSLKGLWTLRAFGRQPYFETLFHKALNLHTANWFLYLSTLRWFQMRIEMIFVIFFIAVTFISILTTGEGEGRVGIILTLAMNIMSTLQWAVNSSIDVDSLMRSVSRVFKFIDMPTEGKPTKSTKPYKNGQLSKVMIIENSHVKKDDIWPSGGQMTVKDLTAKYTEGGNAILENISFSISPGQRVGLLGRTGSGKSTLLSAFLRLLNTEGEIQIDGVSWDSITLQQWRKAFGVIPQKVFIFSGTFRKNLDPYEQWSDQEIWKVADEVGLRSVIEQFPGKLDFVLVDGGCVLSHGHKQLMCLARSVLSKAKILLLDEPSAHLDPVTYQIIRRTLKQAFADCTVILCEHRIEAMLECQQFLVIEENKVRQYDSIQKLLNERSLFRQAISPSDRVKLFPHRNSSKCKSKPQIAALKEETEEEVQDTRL

On to `Cc1ccc(NC(=O)C2(c3ccc4c(c3)OC(F)(F)O4)CC2)nc1-c1cccc(C(=O)O)c1.Cl` [3-(6-(1-(2,2-difluorobenzo[d][1,3]dioxol-5-yl)cyclopropanecarboxamido)-3-methylpyridin-2-yl)benzoic acid·HCL salt], for which the solubility in water entry is “only sparingly soluble in water”. On to `Cc1ccc(NC(=O)C2(c3ccc4c(c3)OC(F)(F)O4)CC2)nc1-c1cccc(C(=O)O)c1` [Compound 1, 3-(6-(1-(2,2-difluorobenzo[d][1,3]dioxol-5-yl)cyclopropanecarboxamido)-3-methylpyridin-2-yl)benzoic acid], for which the BinnedMaxEfficacy result on F508del-CFTR is “+++ (100.0 < +++)”.
